# Source: US9388162B2, “Substituted morphinans and the use thereof” (Purdue Pharma L.P., priority 2012, dated 2016)
# Experiments:
# μ-opioid receptors = μ-opioid receptors (Homo sapiens (Human), UniProt P35372); assay: μ-opioid receptor [35S]GTPγS functional assay, U-2 OS cells; type: biochemical; conditions: μ GTP; for EC50: read-out: Activity Response μ EC50 (nM) [mean ± SEM]; for Emax: relative to DAMGO, read-out: Activity Response μ Emax (%)
# Experimental: [^35S]GTPγS functional assays were conducted using freshly thawed μ-receptor membranes prepared from a cell line expressing recombinant μ opioid receptor in a HEK-293, CHO or U-2 OS cell background or purchased from a commercial source (Perkin Elmer, Shelton, Conn.; or DiscovRx, Fremont, Calif.). Assay reactions were prepared by sequentially adding the following reagents to binding buffer (100 mM NaCl, 10 mM MgCl2, 20 mM HEPES, pH 7.4) on ice (final concentrations indicated): membrane protein (0.026 mg/mL), saponin ([…]), GDP ([…]) and [^35S]GTPγS (0.20 nM; Perkin Elmer, Shelton, Conn.). The prepared membrane solution (190 μl/well) was transferred to 96-shallow well polypropylene plates containing 10 μl of 20× concentrated stock solutions of the agonist [D-Ala^2, N-methyl-Phe^4 Gly-ol^5]-enkephalin (DAMGO) prepared in dimethyl sulfoxide (DMSO). Plates were incubated for 30 min at about 25° C. with shaking. Reactions were terminated by rapid filtration onto 96-well Unifilter GF/B filter plates (Perkin Elmer, Shelton, Conn.) using a 96-well tissue harvester (Perkin Elmer, Shelton, Conn.) followed by three filtration washes with 200 μl of ice-cold wash buffer (10 mM NaH2PO4, 10 mM Na2HPO4, pH 7.4). Filter plates were subsequently dried at 50° C. for 2-3 hours. BetaScint scintillation cocktail (Perkin Elmer, Shelton, Conn.) was added (50 μl/well) and plates were counted using a Packard Top-Count for 1 min/well. Data were analyzed using the sigmoidal dose-response curve fitting functions in GraphPad PRISM v. 3.0, or an in-house function for non-linear, sigmoidal dose-response curve-fitting.
# μ GTP EC50 is the concentration of a compound providing 50% of the maximal response for the compound at a μ-opioid receptor.
# μ GTP Emax (%) is the maximal effect elicited by a compound relative to the effect elicited by DAMGO, a standard μ agonist. Generally, the μ GTP Emax (%) value measures the efficacy of a compound to treat or prevent pain or other Conditions.
# (§1) The following tables provide results on the efficacy of binding and activity response of exemplified Compounds of the Invention at the μ- and κ-opioid receptors. In TABLE 3, binding affinity of certain Compounds of the Invention to the μ- and κ-opioid receptors was determined as described above. In TABLE 4, activity response of certain Compounds of the Invention to the μ- and κ-opioid receptors was determined as described above for functional assays using HEK-293 cells. In TABLE 5, activity response of certain Compounds of the Invention to the μ- and κ-opioid receptors was determined as described above using U-2 OS cells.
# κ opioid receptor = κ opioid receptor (Homo sapiens (Human), UniProt P41145); assay: κ-opioid receptor [35S]GTPγS functional assay, U-2 OS cells; type: biochemical; conditions: κ GTP; for EC50: read-out: Activity Response κ EC50 (nM) [mean ± SEM]; for Emax: relative to U69,593, read-out: Activity Response κ Emax (%)
# Experimental: Membranes from HEK-293 cells, CHO or U-2 OS cells expressing the recombinant human kappa opioid receptor (κ) were prepared by lysing cells in ice cold hypotonic buffer (2.5 mM MgCl2, 50 mM HEPES, pH 7.4) (10 mL/10 cm dish) followed by homogenization with a tissue grinder/Teflon pestle. Membranes were collected by centrifugation at 30,000×g for 15 min at 4° C. and pellets were resuspended in hypotonic buffer to a final concentration of 1-3 mg/mL. Protein concentrations were determined using the BioRad protein assay reagent with bovine serum albumen as standard. Aliquots of κ receptor membranes were stored at −80° C.
# Functional [^35S]GTPγS binding assays were conducted as follows. κ opioid receptor membrane solution was prepared by sequentially adding final concentrations of 0.026 μg/μl κ membrane protein (in-house), 10 μg/mL saponin, 3 μM GDP and 0.20 nM [^35S]GTPγS to binding buffer (100 mM NaCl, 10 mM MgCl2, 20 mM HEPES, pH 7.4) on ice. The prepared membrane solution (190 μl/well) was transferred to 96-shallow well polypropylene plates containing 10 μl of 20× concentrated stock solutions of agonist prepared in DMSO. Plates were incubated for 30 min at a temperature of about 25° C. with shaking. Reactions were terminated by rapid filtration onto 96-well Unifilter GF/B filter plates (Perkin Elmer, Shelton, Conn.) using a 96-well tissue harvester (Packard) and followed by three filtration washes with 200 μl ice-cold binding buffer (10 mM NaH2PO4, 10 mM Na2HPO4, pH 7.4). Filter plates were subsequently dried at 50° C. for 2-3 hours. Fifty μl/well scintillation cocktail (Perkin Elmer, Shelton, Conn.) was added and plates were counted in a Packard Top-Count for 1 min/well.
# κ GTP EC50 is the concentration of a compound providing 50% of the maximal response for the compound at a κ receptor.
# κ GTP Emax (%) is the maximal effect elicited by a compound relative to the effect elicited by U69,593.
# as §1, with “In” for “The following tables provide results on the efficacy of binding and activity response of exemplified Compounds of the Invention at the μ- and κ-opioid receptors. In”
Structure (SMILES),EC50 (μ-opioid receptors),Emax (μ-opioid receptors),EC50 (κ opioid receptor),Emax (κ opioid receptor)
"CN1CC[C@]23CC(=O)[C@@H](CC(=O)O)C[C@@]2(O)[C@H]1Cc1ccc(O)cc13 [Compound 61, 2-((4bR,7R,8aS,9R)-3,8a-dihydroxy-11-methyl-6-oxo-6,7,8,8a,9,10-hexahydro-5H-9,4b-(epiminoethano)phenanthren-7-yl)acetic acid]",466 ± 81 nM,77.3 ± 2.03%,963 ± 83 nM,90 ± 10%
"O=C(N[C@H]1C[C@@]2(O)[C@H]3Cc4ccc(O)cc4[C@@]2(CCN3CC2CC2)CC1=O)C1CCCCC1 [Compound 38, N-((4bR,7S,8aS,9R)-11-(cyclopropylmethyl)-3,8a-dihydroxy-6-oxo-6,7,8,8a,9,10-hexahydro-5H-9,4b-(epiminoethano)phenanthren-7-yl)cyclohexanecarboxamide]",10.3 ± 1.72 nM,40.3 ± 1.45%,2.3 ± 0.25 nM,95.3 ± 5.21%
"CC(C)(C)C[C@H]1C[C@@]2(O)[C@H]3Cc4ccc(O)cc4[C@@]2(CCN3CC2CC2)CC1=O [Compound 68, (4bR,7S,8aS,9R)-11-(cyclopropylmethyl)-3,8a-dihydroxy-7-neopentyl-8,8a,9,10-tetrahydro-5H-9,4b-(epiminoethano)phenanthren-6(7H)-one]",> 200000 nM,3%,20.5 ± 0.4 nM,69 ± 3.21%
"COc1ccc2c(c1)[C@]13CCN(C)[C@H](C2)[C@]1(O)C[C@H](CC(=O)N1CCOCC1)C(=O)C3 [Compound 79, (4bR,7R,8aS,9R)-8a-hydroxy-3-methoxy-11-methyl-7-(2-morpholino-2-oxoethyl)-8,8a,9,10-tetrahydro-5H-9,4b-(epiminoethano)phenanthren-6(7H)-one]",11700 ± 3620 nM,60 ± 10.2%,> 200000 nM,51 ± 0.58%
"CCCC[C@H]1C[C@@]2(O)[C@H]3Cc4ccc(O)cc4[C@@]2(CCN3CC2CC2)CC1=O [Compound 67, (4bR,7S,8aS,9R)-7-butyl-11-(cyclopropylmethyl)-3,8a-dihydroxy-8,8a,9,10-tetrahydro-5H-9,4b-(epiminoethano)phenanthren-6(7H)-one]",> 200000 nM,2%,3 ± 0.12 nM,101 ± 1.73%
"O=C(N[C@H]1C[C@@]2(O)[C@H]3Cc4ccc(O)cc4[C@@]2(CCN3CC2CC2)CC1=O)C1CCCC1 [Compound 35, N-((4bR,7S,8aS,9R)-11-(cyclopropylmethyl)-3,8a-dihydroxy-6-oxo-6,7,8,8a,9,10-hexahydro-5H-9,4b-(epiminoethano)phenanthren-7-yl)cyclopentanecarboxamide]",> 200000 nM,2%,13.6 ± 1.04 nM,85.7 ± 2.4%
"C[C@H](NC(=O)C[C@H]1C[C@@]2(O)[C@H]3Cc4ccc(O)cc4[C@@]2(CCN3C)CC1=O)C(=O)O [Compound 75, (2-((4bR,7R,8aS,9R)-3,8a-dihydroxy-11-methyl-6-oxo-6,7,8,8a,9,10-hexahydro-5H-9,4b-(epiminoethano)phenanthren-7-yl)acetyl)-L-alanine]",1150 ± 103 nM,95 ± 1.53%,16600 ± 1190 nM,66.7 ± 1.2%
"COc1ccc2c(c1)[C@]13CCN(C)[C@H](C2)[C@]1(O)C[C@H](CC(=O)N1CCCC1)C(=O)C3 [Compound 77, (4bR,7R,8aS,9R)-8a-hydroxy-3-methoxy-11-methyl-7-(2-oxo-2-(pyrrolidin-1-yl)ethyl)-8,8a,9,10-tetrahydro-5H-9,4b-(epiminoethano)phenanthren-6(7H)-one]",17600 ± 3650 nM,77 ± 2.08%,> 200000 nM,49 ± 9.45%
"CCC(C)C[C@H]1C[C@@]2(O)[C@H]3Cc4ccc(O)cc4[C@@]2(CCN3CC2CC2)CC1=O (stereo partly drawn) [Compound 66, (4bR,7S,8aS,9R)-11-(cyclopropylmethyl)-3,8a-dihydroxy-7-(2-methylbutyl)-8,8a,9,10-tetrahydro-5H-9,4b-(epiminoethano)phenanthren-6(7H)-one]",> 200000 nM,2.5%,7.57 ± 1.14 nM,102 ± 1.33%
"CC(=O)N[C@H]1C[C@@]2(O)[C@H]3Cc4ccc(O)cc4[C@@]2(CCN3CC2CC2)CC1=O [Compound 28, N-((4bR,7S,8aS,9R)-11-(cyclopropylmethyl)-3,8a-dihydroxy-6-oxo-6,7,8,8a,9,10-hexahydro-5H-9,4b-(epiminoethano)phenanthren-7-yl)acetamide]",> 200000 nM,2.5%,27.1 ± 3.29 nM,86.7 ± 2.4%
"CC(C)C(=O)N[C@H]1C[C@@]2(O)[C@H]3Cc4ccc(O)cc4[C@@]2(CCN3CC2CC2)CC1=O [Compound 27, N-((4bR,7S,8aS,9R)-11-(cyclopropylmethyl)-3,8a-dihydroxy-6-oxo-6,7,8,8a,9,10-hexahydro-5H-9,4b-(epiminoethano)phenanthren-7-yl)isobutyramide]",> 200000 nM,8 ± 2.12%,24.7 ± 3.18 nM,92.7 ± 3.18%
"CN1CC[C@]23CC(=O)[C@@H](CC(=O)N4CCCCC4)C[C@@]2(O)[C@H]1Cc1ccc(O)cc13 [Compound 80, (4bR,7R,8aS,9R)-3,8a-dihydroxy-11-methyl-7-(2-oxo-2-(piperidin-1-yl)ethyl)-8,8a,9,10-tetrahydro-5H-9,4b-(epiminoethano)phenanthren-6(7H)-one]",581 ± 22.1 nM,74 ± 0.58%,1200 ± 114 nM,43 ± 1.73%
"COc1ccc2c(c1)[C@]13CCN(CC4CC4)[C@H](C2)[C@]1(O)C[C@H](O)C(=O)C3 [Compound 25, (4bR,7S,8aS,9R)-11-(cyclopropylmethyl)-7,8a-dihydroxy-3-methoxy-8,8a,9,10-tetrahydro-5H-9,4b-(epiminoethano)phenanthren-6(7H)-one]",578 ± 91.8 nM,36 ± 3.51%,876 ± 18.8 nM,106 ± 3.28%
"COc1ccc2c(c1)[C@]13CCN(C)[C@H](C2)[C@]1(O)C[C@H](CC(=O)N1CCC(O)CC1)C(=O)C3 [Compound 78, (4bR,7R,8aS,9R)-8a-hydroxy-7-(2-(4-hydroxypiperidin-1-yl)-2-oxoethyl)-3-methoxy-11-methyl-8,8a,9,10-tetrahydro-5H-9,4b-(epiminoethano)phenanthren-6(7H)-one]",10400 ± 4810 nM,36.7 ± 9.17%,> 200000 nM,53.3 ± 1.45%
"COc1ccc2c(c1)[C@]13CCN(C)[C@H](C2)[C@]1(O)C[C@H](CC(=O)O)C(=O)C3 [Compound 60, 2-((4bR,7R,8aS,9R)-8a-hydroxy-3-methoxy-11-methyl-6-oxo-6,7,8,8a,9,10-hexahydro-5H-9,4b-(epiminoethano)phenanthren-7-yl)acetic acid]",–,–,14900 ± 1320 nM,84.3 ± 0.67%
